Source: patent publication US20170045513A1, “METHODS OF DIAGNOSING CELIAC DISEASE USING IP-10” (ImmusanT, Inc., priority 2014, published 2017)
Non-standard residues stand in square brackets, D forms with d. pGlu = O=C1CC[C@@H](C(=O)O)N1

Test system: gluten-reactive T cells
Assay: Cytokine release assays taken together (IFNγ ELISpot, whole blood IFNγ and IP-10, in-tube IFNγ ELISA)
Type: cell-based, human
Details: for activity relative to Peptide 14 in the cytokine release assays / rank of activity among individual gluten peptides: blood collected after oral gluten challenge; for cytokine release / immunogenicity of individual peptide: HLA-DQ2.5+ celiac disease subjects after gluten challenge
Experimental: Gluten peptide solutions for addition to whole blood were arranged according to standardized templates in sterile 96-well U-bottom plates (30 μL/well). Plates were sealed with adhesive ELISA plate cover slips before the plastic lid was replaced and being frozen at −80° C. Whole blood assay (WBA) “medium” (1% DMSO in 90% PBS and 9% normal saline), mitogen (PHA-L, Sigma-Aldrich #L2769; St Louis Mo.) 100 μg/ml in WBA medium, and CEF diluted to 10 μg/ml in PBS with a final concentration of 1% DMSO were frozen separately in sterile cryovials. 96-well plates and cryovials with frozen incubation solutions were shipped on dry ice to the clinical site where blood was collected and incubations performed. Solutions were thawed at room temperature for 10 min just before being added to whole blood. 96-well plates were thawed while being centrifuged at 300 g to avoid surface condensation. A multi-channel pipette was used to efficiently transfer 25 μL of peptide solutions from the original 96-well plate to corresponding wells in a fresh sterile 96-well U-bottom plate. Once incubation solutions had been added, 225 μL of whole blood was added to each well and the plate transferred to incubate for 24 h at 37° C. 5% CO2. […] Individual peptides were incubated at a final assay concentration of 51.1M. Final concentrations of individual peptides assessed in P3 was 0.05-50 μg/mL, and in P14 and P13 pools 0.025-25 μM. The P71 pool was tested at between 0.005-10 pg/mL, the highest tested concentration being the maximal possible not exceeding 0.1% DMSO. Peptide pools, mitogen, and medium only were assessed in triplicate wells, and on Day-6 individual peptides were assessed in duplicate wells. Incubations were terminated after 24 h, and 96-well plates centrifuged at 300 g for 10 min. A total of approximately 90 to 120 μL of plasma was removed from each well taking care to avoid red cell contamination, and transferred into corresponding wells of two further 96-well plates (one with 30 μL/well and the residual in the second plate). Plasmas were frozen at −80° C. and later shipped on dry ice to the central lab where IP-10 and IFNγ multiplex bead assays were performed according to manufacturer's instructions using 25 μL plasma per well (Milliplex® MAP Human Cytokine/Chemokine Magnetic Bead Panel #HCYTOMAG-60k-02; EMD Millipore Corp., Billerica, Mass. 01821) and analysed with the Luminex® MAGPIX® System xPONENT® software (Luminex Corporation, Austin Tex. 78727). Plasma cytokine levels for each assay condition were expressed as the mean analyte concentration of each of the three replicate incubations. Laboratory staff were unaware of the arrangement of peptide solutions incubated with during assay setup and plate counting.
Aliquots of PBS, P3 peptides diluted in PBS (final concentration in blood 3× 50 or CEF to a final concentration 1 μg/mL were prepared in sterile cryovials (0.11 mL/vial) and stored frozen (−80° C.) until immediately before use. P3, CEF and two PBS aliquots were drawn up in separate sterile 0.3 mL insulin syringes with attached 29G×½″ needle (Terumo, SS*30M2913; Elkton Md. 21921). P3, CEF and one PBS aliquot was injected through the stoppers of three separate QuantiFERON® NIL tubes already containing 1 mL blood, and one aliquot of PBS was injected into a QuantiFERON® MITOGEN tube already containing 1 mL blood. All four tubes containing blood and incubation solution were gently inverted ten-times and transferred to incubate at 37° C. 5% CO2. After for 24 h, tubes were centrifuged 300 g 10 min. Plasma was separated and equal volumes placed in two 1.5 mL cryovials. Frozen plasmas were transferred to the central lab where IFNγ levels were measured in triplicate 50 μL samples by ELISA (MABtech Human IFN-γ ELISA development kit HRP, 3420-1H-6; capture mAb 1-D1K). […]

Substance	activity relative to Peptide 14 in the cytokine release assays	rank of activity among individual gluten peptides	cytokine release / immunogenicity of individual peptide
(pE)LQPFPQPELPYPQPQ-amide ([pGlu]LQPFPQPELPYPQPQ-NH2; SMILES CC(C)C[C@H](NC(=O)[C@@H]1CCC(=O)N1)C(=O)N[C@@H](CCC(N)=O)C(=O)N1CCC[C@H]1C(=O)N[C@@H](Cc1ccccc1)C(=O)N1CCC[C@H]1C(=O)N[C@@H](CCC(N)=O)C(=O)N1CCC[C@H]1C(=O)N[C@@H](CCC(=O)O)C(=O)N[C@@H](CC(C)C)C(=O)N1CCC[C@H]1C(=O)N[C@@H](Cc1ccc(O)cc1)C(=O)N1CCC[C@H]1C(=O)N[C@@H](CCC(N)=O)C(=O)N1CCC[C@H]1C(=O)N[C@@H](CCC(N)=O)C(N)=O) [Peptide 1]	no more than two-thirds as active as Peptide 14	the most active of this group of related peptides	–
(pE)PEQPEQPFPEQPQQ-amide ([pGlu]PEQPEQPFPEQPQQ-NH2; SMILES NC(=O)CC[C@H](NC(=O)[C@H](CCC(N)=O)NC(=O)[C@@H]1CCCN1C(=O)[C@H](CCC(N)=O)NC(=O)[C@H](CCC(=O)O)NC(=O)[C@@H]1CCCN1C(=O)[C@H](Cc1ccccc1)NC(=O)[C@@H]1CCCN1C(=O)[C@H](CCC(N)=O)NC(=O)[C@H](CCC(=O)O)NC(=O)[C@@H]1CCCN1C(=O)[C@H](CCC(N)=O)NC(=O)[C@H](CCC(=O)O)NC(=O)[C@@H]1CCCN1C(=O)[C@@H]1CCC(=O)N1)C(N)=O) [Peptide 11]	–	–	weak or not distinguishable from medium alone
(pE)PEQPFPEQPIPEQPQPYP-amide ([pGlu]PEQPFPEQPIPEQPQPYP-NH2; SMILES CC[C@H](C)[C@H](NC(=O)[C@@H]1CCCN1C(=O)[C@H](CCC(N)=O)NC(=O)[C@H](CCC(=O)O)NC(=O)[C@@H]1CCCN1C(=O)[C@H](Cc1ccccc1)NC(=O)[C@@H]1CCCN1C(=O)[C@H](CCC(N)=O)NC(=O)[C@H](CCC(=O)O)NC(=O)[C@@H]1CCCN1C(=O)[C@@H]1CCC(=O)N1)C(=O)N1CCC[C@H]1C(=O)N[C@@H](CCC(=O)O)C(=O)N[C@@H](CCC(N)=O)C(=O)N1CCC[C@H]1C(=O)N[C@@H](CCC(N)=O)C(=O)N1CCC[C@H]1C(=O)N[C@@H](Cc1ccc(O)cc1)C(=O)N1CCC[C@H]1C(N)=O) [Peptide 14]	–	most active	–
(pE)PEQPIPEQPQPYPQQ-amide ([pGlu]PEQPIPEQPQPYPQQ-NH2; SMILES CC[C@H](C)[C@H](NC(=O)[C@@H]1CCCN1C(=O)[C@H](CCC(N)=O)NC(=O)[C@H](CCC(=O)O)NC(=O)[C@@H]1CCCN1C(=O)[C@@H]1CCC(=O)N1)C(=O)N1CCC[C@H]1C(=O)N[C@@H](CCC(=O)O)C(=O)N[C@@H](CCC(N)=O)C(=O)N1CCC[C@H]1C(=O)N[C@@H](CCC(N)=O)C(=O)N1CCC[C@H]1C(=O)N[C@@H](Cc1ccc(O)cc1)C(=O)N1CCC[C@H]1C(=O)N[C@@H](CCC(N)=O)C(=O)N[C@@H](CCC(N)=O)C(N)=O) [Peptide 3]	–	second most active	–
(pE)PQPYPEQPQPFPQQ-amide ([pGlu]PQPYPEQPQPFPQQ-NH2; SMILES NC(=O)CC[C@H](NC(=O)[C@H](CCC(N)=O)NC(=O)[C@@H]1CCCN1C(=O)[C@H](Cc1ccccc1)NC(=O)[C@@H]1CCCN1C(=O)[C@H](CCC(N)=O)NC(=O)[C@@H]1CCCN1C(=O)[C@H](CCC(N)=O)NC(=O)[C@H](CCC(=O)O)NC(=O)[C@@H]1CCCN1C(=O)[C@H](Cc1ccc(O)cc1)NC(=O)[C@@H]1CCCN1C(=O)[C@H](CCC(N)=O)NC(=O)[C@@H]1CCCN1C(=O)[C@@H]1CCC(=O)N1)C(N)=O) [Peptide 8]	approximately one-half to one-fifth as active as Peptide 14	–	–
(pE)QPFPQPELPYPYPQ-amide ([pGlu]QPFPQPELPYPYPQ-NH2; SMILES CC(C)C[C@H](NC(=O)[C@H](CCC(=O)O)NC(=O)[C@@H]1CCCN1C(=O)[C@H](CCC(N)=O)NC(=O)[C@@H]1CCCN1C(=O)[C@H](Cc1ccccc1)NC(=O)[C@@H]1CCCN1C(=O)[C@H](CCC(N)=O)NC(=O)[C@@H]1CCC(=O)N1)C(=O)N1CCC[C@H]1C(=O)N[C@@H](Cc1ccc(O)cc1)C(=O)N1CCC[C@H]1C(=O)N[C@@H](Cc1ccc(O)cc1)C(=O)N1CCC[C@H]1C(=O)N[C@@H](CCC(N)=O)C(N)=O) [Peptide 16]	no more than two-thirds as active as Peptide 14	–	–
(pE)QPFPQPEQPFPLQPEQP-amide ([pGlu]QPFPQPEQPFPLQPEQP-NH2; SMILES CC(C)C[C@H](NC(=O)[C@@H]1CCCN1C(=O)[C@H](Cc1ccccc1)NC(=O)[C@@H]1CCCN1C(=O)[C@H](CCC(N)=O)NC(=O)[C@H](CCC(=O)O)NC(=O)[C@@H]1CCCN1C(=O)[C@H](CCC(N)=O)NC(=O)[C@@H]1CCCN1C(=O)[C@H](Cc1ccccc1)NC(=O)[C@@H]1CCCN1C(=O)[C@H](CCC(N)=O)NC(=O)[C@@H]1CCC(=O)N1)C(=O)N[C@@H](CCC(N)=O)C(=O)N1CCC[C@H]1C(=O)N[C@@H](CCC(=O)O)C(=O)N[C@@H](CCC(N)=O)C(=O)N1CCC[C@H]1C(N)=O) [Peptide 6]	approximately one-half to one-fifth as active as Peptide 14	–	–
(pE)QPFPQPEQPFSQQ-amide ([pGlu]QPFPQPEQPFSQQ-NH2; SMILES NC(=O)CC[C@H](NC(=O)[C@H](CCC(N)=O)NC(=O)[C@H](CO)NC(=O)[C@H](Cc1ccccc1)NC(=O)[C@@H]1CCCN1C(=O)[C@H](CCC(N)=O)NC(=O)[C@H](CCC(=O)O)NC(=O)[C@@H]1CCCN1C(=O)[C@H](CCC(N)=O)NC(=O)[C@@H]1CCCN1C(=O)[C@H](Cc1ccccc1)NC(=O)[C@@H]1CCCN1C(=O)[C@H](CCC(N)=O)NC(=O)[C@@H]1CCC(=O)N1)C(N)=O) [Peptide 7]	–	–	weak or absent
(pE)QPFPQPEQPIPVQPEQS-amide ([pGlu]QPFPQPEQPIPVQPEQS-NH2; SMILES CC[C@H](C)[C@H](NC(=O)[C@@H]1CCCN1C(=O)[C@H](CCC(N)=O)NC(=O)[C@H](CCC(=O)O)NC(=O)[C@@H]1CCCN1C(=O)[C@H](CCC(N)=O)NC(=O)[C@@H]1CCCN1C(=O)[C@H](Cc1ccccc1)NC(=O)[C@@H]1CCCN1C(=O)[C@H](CCC(N)=O)NC(=O)[C@@H]1CCC(=O)N1)C(=O)N1CCC[C@H]1C(=O)N[C@H](C(=O)N[C@@H](CCC(N)=O)C(=O)N1CCC[C@H]1C(=O)N[C@@H](CCC(=O)O)C(=O)N[C@@H](CCC(N)=O)C(=O)N[C@@H](CO)C(N)=O)C(C)C) [Peptide 4]	from one-half to one-eighth as active as Peptide 14	–	–
(pE)QPFPQPEQPTPIQPEQP-amide ([pGlu]QPFPQPEQPTPIQPEQP-NH2; SMILES CC[C@H](C)[C@H](NC(=O)[C@@H]1CCCN1C(=O)[C@@H](NC(=O)[C@@H]1CCCN1C(=O)[C@H](CCC(N)=O)NC(=O)[C@H](CCC(=O)O)NC(=O)[C@@H]1CCCN1C(=O)[C@H](CCC(N)=O)NC(=O)[C@@H]1CCCN1C(=O)[C@H](Cc1ccccc1)NC(=O)[C@@H]1CCCN1C(=O)[C@H](CCC(N)=O)NC(=O)[C@@H]1CCC(=O)N1)[C@@H](C)O)C(=O)N[C@@H](CCC(N)=O)C(=O)N1CCC[C@H]1C(=O)N[C@@H](CCC(=O)O)C(=O)N[C@@H](CCC(N)=O)C(=O)N1CCC[C@H]1C(N)=O) [Peptide 5]	from one-half to one-eighth as active as Peptide 14	–	–
(pE)QPPFSEQEQPVLPQ-amide (N-terminal pyroglutamate; C-terminal amide) [Peptide 13]	–	–	weak or not distinguishable from medium alone
